Test results from the CheMixHub viscosity set.
± gives the uncertainty stated by the source.

Assay: xn = mol fraction of the nth substance listed

COCCOC + CCCCCCCCO
viscosity (298.15 K, 101 kPa, x1 = 0.1384): 4.222 ± 0.025 mPa·s | viscosity (298.15 K, 101 kPa, x1 = 0.2654): 2.824 ± 0.017 mPa·s | viscosity (298.15 K, 101 kPa, x1 = 0.3825): 1.922 ± 0.012 mPa·s | viscosity (298.15 K, 101 kPa, x1 = 0.4907): 1.402 ± 0.009 mPa·s | viscosity (298.15 K, 101 kPa, x1 = 0.591): 1.089 ± 0.0072 mPa·s | viscosity (298.15 K, 101 kPa, x1 = 0.6843): 0.8523 ± 0.0058 mPa·s | viscosity (298.15 K, 101 kPa, x1 = 0.7713): 0.6745 ± 0.0047 mPa·s | viscosity (298.15 K, 101 kPa, x1 = 0.8525): 0.5661 ± 0.0041 mPa·s | viscosity (298.15 K, 101 kPa, x1 = 0.9286): 0.4789 ± 0.0036 mPa·s

CCC(C)=O + CCCCCCCO
viscosity (293.15 K, 100 kPa, x1 = 0.0829): 5.23 ± 0.53 mPa·s | viscosity (293.15 K, 100 kPa, x1 = 0.1614): 3.85 ± 0.39 mPa·s | viscosity (293.15 K, 100 kPa, x1 = 0.2389): 3.02 ± 0.3 mPa·s | viscosity (293.15 K, 100 kPa, x1 = 0.3509): 2.1 ± 0.21 mPa·s | viscosity (293.15 K, 100 kPa, x1 = 0.4404): 1.64 ± 0.16 mPa·s | viscosity (293.15 K, 100 kPa, x1 = 0.5592): 1.16 ± 0.12 mPa·s | viscosity (293.15 K, 100 kPa, x1 = 0.6488): 0.92 ± 0.09 mPa·s | viscosity (293.15 K, 100 kPa, x1 = 0.7389): 0.73 ± 0.07 mPa·s | viscosity (293.15 K, 100 kPa, x1 = 0.8502): 0.56 ± 0.06 mPa·s | viscosity (293.15 K, 100 kPa, x1 = 0.9396): 0.47 ± 0.05 mPa·s | viscosity (303.15 K, 100 kPa, x1 = 0.0829): 3.72 ± 0.37 mPa·s | viscosity (303.15 K, 100 kPa, x1 = 0.1614): 2.97 ± 0.3 mPa·s | viscosity (303.15 K, 100 kPa, x1 = 0.2389): 2.31 ± 0.23 mPa·s | viscosity (303.15 K, 100 kPa, x1 = 0.3509): 1.69 ± 0.17 mPa·s | viscosity (303.15 K, 100 kPa, x1 = 0.4404): 1.31 ± 0.13 mPa·s | viscosity (303.15 K, 100 kPa, x1 = 0.5592): 0.9 ± 0.09 mPa·s | viscosity (303.15 K, 100 kPa, x1 = 0.6488): 0.73 ± 0.07 mPa·s | viscosity (303.15 K, 100 kPa, x1 = 0.7389): 0.6 ± 0.06 mPa·s | viscosity (303.15 K, 100 kPa, x1 = 0.8502): 0.45 ± 0.05 mPa·s | viscosity (303.15 K, 100 kPa, x1 = 0.9396): 0.39 ± 0.04 mPa·s | viscosity (313.15 K, 100 kPa, x1 = 0.0829): 2.85 ± 0.29 mPa·s | viscosity (313.15 K, 100 kPa, x1 = 0.1614): 2.28 ± 0.23 mPa·s | viscosity (313.15 K, 100 kPa, x1 = 0.2389): 1.82 ± 0.18 mPa·s | viscosity (313.15 K, 100 kPa, x1 = 0.3509): 1.38 ± 0.14 mPa·s | viscosity (313.15 K, 100 kPa, x1 = 0.4404): 1.11 ± 0.11 mPa·s | viscosity (313.15 K, 100 kPa, x1 = 0.5592): 0.82 ± 0.08 mPa·s | viscosity (313.15 K, 100 kPa, x1 = 0.6488): 0.68 ± 0.07 mPa·s | viscosity (313.15 K, 100 kPa, x1 = 0.7389): 0.56 ± 0.06 mPa·s | viscosity (313.15 K, 100 kPa, x1 = 0.8502): 0.44 ± 0.04 mPa·s | viscosity (313.15 K, 100 kPa, x1 = 0.9396): 0.38 ± 0.04 mPa·s | viscosity (323.15 K, 100 kPa, x1 = 0.0829): 2.21 ± 0.22 mPa·s | viscosity (323.15 K, 100 kPa, x1 = 0.1614): 1.82 ± 0.18 mPa·s | viscosity (323.15 K, 100 kPa, x1 = 0.2389): 1.48 ± 0.15 mPa·s | viscosity (323.15 K, 100 kPa, x1 = 0.3509): 1.15 ± 0.12 mPa·s | viscosity (323.15 K, 100 kPa, x1 = 0.4404): 0.93 ± 0.09 mPa·s | viscosity (323.15 K, 100 kPa, x1 = 0.5592): 0.7 ± 0.07 mPa·s | viscosity (323.15 K, 100 kPa, x1 = 0.6488): 0.58 ± 0.06 mPa·s | viscosity (323.15 K, 100 kPa, x1 = 0.7389): 0.5 ± 0.05 mPa·s | viscosity (323.15 K, 100 kPa, x1 = 0.8502): 0.39 ± 0.04 mPa·s | viscosity (323.15 K, 100 kPa, x1 = 0.9396): 0.34 ± 0.03 mPa·s

COCCOC + CCCCCCCO
viscosity (293.15 K, 101 kPa, x1 = 0.04689): 5.696 ± 0.06 mPa·s | viscosity (293.15 K, 101 kPa, x1 = 0.1108): 4.364 ± 0.046 mPa·s | viscosity (293.15 K, 101 kPa, x1 = 0.1958): 3.168 ± 0.033 mPa·s | viscosity (293.15 K, 101 kPa, x1 = 0.2906): 2.308 ± 0.024 mPa·s | viscosity (293.15 K, 101 kPa, x1 = 0.402): 1.645 ± 0.017 mPa·s | viscosity (293.15 K, 101 kPa, x1 = 0.4906): 1.283 ± 0.013 mPa·s | viscosity (293.15 K, 101 kPa, x1 = 0.6674): 0.843 ± 0.009 mPa·s | viscosity (293.15 K, 101 kPa, x1 = 0.7068): 0.768 ± 0.008 mPa·s | viscosity (293.15 K, 101 kPa, x1 = 0.8006): 0.631 ± 0.007 mPa·s | viscosity (293.15 K, 101 kPa, x1 = 0.894): 0.525 ± 0.006 mPa·s | viscosity (293.15 K, 101 kPa, x1 = 0.948): 0.477 ± 0.005 mPa·s | viscosity (303.15 K, 101 kPa, x1 = 0.03301): 4.403 ± 0.047 mPa·s | viscosity (303.15 K, 101 kPa, x1 = 0.1088): 3.286 ± 0.035 mPa·s | viscosity (303.15 K, 101 kPa, x1 = 0.1924): 2.49 ± 0.026 mPa·s | viscosity (303.15 K, 101 kPa, x1 = 0.2936): 1.802 ± 0.019 mPa·s | viscosity (303.15 K, 101 kPa, x1 = 0.4015): 1.325 ± 0.014 mPa·s | viscosity (303.15 K, 101 kPa, x1 = 0.4903): 1.066 ± 0.011 mPa·s | viscosity (303.15 K, 101 kPa, x1 = 0.594): 0.842 ± 0.009 mPa·s | viscosity (303.15 K, 101 kPa, x1 = 0.7001): 0.671 ± 0.007 mPa·s | viscosity (303.15 K, 101 kPa, x1 = 0.8062): 0.542 ± 0.006 mPa·s | viscosity (303.15 K, 101 kPa, x1 = 0.8901): 0.467 ± 0.005 mPa·s | viscosity (303.15 K, 101 kPa, x1 = 0.9469): 0.425 ± 0.005 mPa·s | viscosity (313.15 K, 101 kPa, x1 = 0.04399): 3.176 ± 0.034 mPa·s | viscosity (313.15 K, 101 kPa, x1 = 0.1188): 2.473 ± 0.026 mPa·s | viscosity (313.15 K, 101 kPa, x1 = 0.1968): 1.933 ± 0.021 mPa·s | viscosity (313.15 K, 101 kPa, x1 = 0.2941): 1.478 ± 0.016 mPa·s | viscosity (313.15 K, 101 kPa, x1 = 0.404): 1.121 ± 0.012 mPa·s | viscosity (313.15 K, 101 kPa, x1 = 0.4883): 0.918 ± 0.01 mPa·s | viscosity (313.15 K, 101 kPa, x1 = 0.6006): 0.717 ± 0.008 mPa·s | viscosity (313.15 K, 101 kPa, x1 = 0.6962): 0.591 ± 0.006 mPa·s | viscosity (313.15 K, 101 kPa, x1 = 0.8094): 0.482 ± 0.005 mPa·s | viscosity (313.15 K, 101 kPa, x1 = 0.9): 0.41 ± 0.004 mPa·s | viscosity (313.15 K, 101 kPa, x1 = 0.9404): 0.386 ± 0.004 mPa·s
